Drawing on patent US10981894B2, “Melanocortin subtype-2 receptor (MC2R) antagonists and uses thereof” (Crinetics Pharmaceuticals, Inc., priority 2018, dated 2021), this text covers Ki for 18 molecules.

Sequence of hMC2 receptor (Q01718 whole entry): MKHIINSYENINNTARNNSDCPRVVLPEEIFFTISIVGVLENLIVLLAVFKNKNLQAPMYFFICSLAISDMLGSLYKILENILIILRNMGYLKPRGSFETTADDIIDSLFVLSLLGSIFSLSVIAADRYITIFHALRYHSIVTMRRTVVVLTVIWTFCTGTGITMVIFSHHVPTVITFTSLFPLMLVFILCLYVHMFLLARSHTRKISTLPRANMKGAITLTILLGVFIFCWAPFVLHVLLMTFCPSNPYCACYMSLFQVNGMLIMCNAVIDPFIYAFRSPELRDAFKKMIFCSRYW
Sequence of hMC2 receptor (Q8TCY5 whole entry partner): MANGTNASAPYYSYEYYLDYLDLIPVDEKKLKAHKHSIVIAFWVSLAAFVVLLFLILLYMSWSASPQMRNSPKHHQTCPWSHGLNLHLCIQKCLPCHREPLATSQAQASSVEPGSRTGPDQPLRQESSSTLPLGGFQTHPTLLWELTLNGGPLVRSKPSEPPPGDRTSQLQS

The assay concerns the target hMC2 receptor (Homo sapiens, UniProt Q01718). In words: hMC2 membrane binding assay ([125I]ACTH (1-39) Tyr23, SPA). Details: scale not given here. The following applies: crude hMC2R membranes from CRE-bla-CHO-K1 cells expressing hMC2 receptor and hMRAP; [125I]ACTH (1-39) Tyr23 0.2 nM; 1.5 hours at room temperature; read-out: MC2R binding potency. The gist of the method: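 CRE-bla-CHO-K1 membranes co-expressing hMC2 receptor and hMRAP, preincubated with WGA PVT SPA beads in pH 7.4 HEPES/MgCl2/CaCl2/0.2% BSA buffer. Compounds (typically 0–10,000 nM final) compete with 0.2 nM [125I]ACTH(1-39) Tyr23 for 1.5 h at room temperature. SPA counts give Ki by non-linear regression.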
As for `CCOc1ncccc1-c1ccc(N2CCN(C(=O)c3ccc(Cl)cc3C(F)(F)F)C[C@H]2CC)c(C(=O)NC[C@H]2CCN2C)c1` [Compound 1-228, 2-[(2R)-4-[4-chloro-2-(trifluoromethyl)benzoyl]-2-ethylpiperazin-1-yl]-5-(2-ethoxypyridin-3-yl)-N-{[(2R)-1-methylazetidin-2-yl]methyl}benzamide], the Ki is below 10 nM.

Take `CCOc1ncccc1-c1ccc(N2CCN(C(=O)C3(C(F)(F)F)CCCC3)C[C@H]2CC)c(C(=O)NC[C@@H]2CCN2)n1` [Compound 1-329, N-{[(2S)-azetidin-2-yl]methyl}-2′-ethoxy-5-[(2R)-2-ethyl-4-[1-(trifluoromethyl)cyclopentanecarbonyl]piperazin-1-yl]-[2,3′-bipyridine]-6-carboxamide]: the Ki was below 10 nM.

Regarding `CCOc1ccccc1-c1ccc(N2CCN(C(=O)C3(C(F)(F)F)CCCC3)C[C@H]2CC)c(C(=O)N[C@@H]2CCNC2)n1` [Compound 1-304, 6-(2-ethoxyphenyl)-3-[(2R)-2-ethyl-4-[1-(trifluoromethyl)cyclopentanecarbonyl]piperazin-1-yl]-N-[(3R)-pyrrolidin-3-yl]pyridine-2-carboxamide], the Ki was below 10 nM.

In the case of `CCOc1ccccc1-c1ccc(N2CCN(C(=O)c3ccc(C(F)(F)F)cc3Cl)C[C@H]2CC)c(CNC[C@H](C)O)c1` [Compound 2-2, (2S)-1-[({4-[(2R)-4-[2-chloro-4-(trifluoromethyl)benzoyl]-2-ethylpiperazin-1-yl]-2′-ethoxy-[1,1′-biphenyl]-3-yl}methyl)amino]propan-2-ol], the Ki is below 10 nM.

For `CCOc1ccccc1-c1ccc(N2CCN(C(=O)c3ccc(C(F)(F)F)cc3Cl)C[C@H]2CC)c(C(=O)NCCCN)c1` [Compound 1-23, N-(3-aminopropyl)-4-[(2R)-4-[2-chloro-4-(trifluoromethyl)benzoyl]-2-ethylpiperazin-1-yl]-2′-ethoxy-[1,1′-biphenyl]-3-carboxamide], the Ki was in the range of 10 to 100 nM.

For the molecule `CCOc1ncccc1-c1ccc(N2CCN(C(=O)c3ccc(Cl)cc3N(C)C)C[C@H]2CC)c(C(=O)N[C@@H]2CCNC2)c1` [Compound 1-91, 2-[(2R)-4-[4-chloro-2-(dimethylamino)benzoyl]-2-ethylpiperazin-1-yl]-5-(2-ethoxypyridin-3-yl)-N-[(3R)-pyrrolidin-3-yl]benzamide], the Ki is below 10 nM.

In the case of `CCOc1ncccc1-c1ccc(N2CCN(C(=O)c3ccc(F)cc3C(F)(F)F)C[C@H]2CC)c(C(=O)N[C@@H]2CCNC2)c1F` [Compound 1-111, 3-(2-ethoxypyridin-3-yl)-6-[(2R)-2-ethyl-4-[4-fluoro-2-(trifluoromethyl)benzoyl]piperazin-1-yl]-2-fluoro-N-[(3R)-pyrrolidin-3-yl]benzamide], the Ki is below 10 nM.

For `CCOc1ccccc1-c1ccc(N2CCN(C(=O)N3CCC[C@H]3C(F)(F)F)C[C@H]2CC)c(C(=O)NC[C@@H]2CCN2C)n1` [Compound 1-387, 6-(2-ethoxyphenyl)-3-[(2R)-2-ethyl-4-[(2S)-2-(trifluoromethyl)pyrrolidine-1-carbonyl]piperazin-1-yl]-N-{[(2S)-1-methylazetidin-2-yl]methyl}pyridine-2-carboxamide], the Ki was below 10 nM.

On to `CCOc1ncccc1-c1ccc(N2CCN(C(=O)c3ccc(Cl)cc3C(F)(F)F)C[C@H]2CC)c(C(=O)NC[C@H]2COCCN2)c1` [Compound 1-138, 2-[(2R)-4-[4-chloro-2-(trifluoromethyl)benzoyl]-2-ethylpiperazin-1-yl]-5-(2-ethoxypyridin-3-yl)-N-{[(3S)-morpholin-3-yl]methyl}benzamide], for which the Ki is below 10 nM.

Turning to `CCOc1ccccc1-c1ccc(N2CCN(C(=O)c3ccc(Cl)cc3C(F)(F)F)C[C@H]2CC)c(C(=O)NCCNC)n1` [Compound 1-208, 3-[(2R)-4-[4-chloro-2-(trifluoromethyl)benzoyl]-2-ethylpiperazin-1-yl]-6-(2-ethoxyphenyl)-N-[2-(methylamino)ethyl]pyridine-2-carboxamide], the Ki is below 10 nM.

Turning to `CCOc1ncccc1-c1ccc(N2CCN(C(=O)N3CCc4cccc(C(F)(F)F)c43)C[C@H]2CC)c(C(=O)N[C@@H]2CCNC2)n1` [Compound 1-361, 2′-ethoxy-5-[(2R)-2-ethyl-4-[7-(trifluoromethyl)-2,3-dihydro-1H-indole-1-carbonyl]piperazin-1-yl]-N-[(3R)-pyrrolidin-3-yl]-[2,3′-bipyridine]-6-carboxamide], the Ki is below 10 nM.

`CCOc1ncccc1-c1ccc(N2CCN(C(=O)C3C4CC5CC(C4)CC3C5)C[C@H]2CC)c(C(=O)NC2CN(C)C2)n1` (stereo partly drawn) [Compound 1-238, 5-[(2R)-4-(adamantane-2-carbonyl)-2-ethylpiperazin-1-yl]-2′-ethoxy-N-(1-methylazetidin-3-yl)-[2,3′-bipyridine]-6-carboxamide]: the Ki was below 10 nM.

For `CCOc1ncccc1-c1ccc(N2CCN(C(=O)C3(C(F)(F)F)CCCC3)C[C@H]2CC)c(C(=O)N[C@H]2CCNC2)n1` [Compound 1-321, 2′-ethoxy-5-[(2R)-2-ethyl-4-[1-(trifluoromethyl)cyclopentanecarbonyl]piperazin-1-yl]-N-[(3S)-pyrrolidin-3-yl]-[2,3′-bipyridine]-6-carboxamide], the Ki is below 10 nM.

As for `CCOc1ncccc1-c1ccc(N2CCN(C(=O)c3ccc(Cl)cc3C(F)(F)F)C[C@H]2CC)c(C(=O)NC2CNC2)c1F` [Compound 1-198, N-(azetidin-3-yl)-6-[(2R)-4-[4-chloro-2-(trifluoromethyl)benzoyl]-2-ethylpiperazin-1-yl]-3-(2-ethoxypyridin-3-yl)-2-fluorobenzamide], the Ki is below 10 nM.

For `CCOc1ncccc1-c1ccc(N2CCN(C(=O)[C@H]3CC[C@@H](C(F)(F)F)CC3)C[C@H]2CC)c(C(=O)N[C@@H]2CCNC2)n1` [Compound 1-299, 2′-ethoxy-5-[(2R)-2-ethyl-4-[cis-4-(trifluoromethyl)cyclohexanecarbonyl]piperazin-1-yl]-N-[(3R)-pyrrolidin-3-yl]-[2,3′-bipyridine]-6-carboxamide], the Ki is below 10 nM.

Consider `CCOc1ncccc1-c1ccc(N2CCN(C(=O)c3ccc(F)cc3C(F)(F)F)C[C@H]2CC)c(CNCCNC)c1` [Compound 2-21, {[5-(2-ethoxypyridin-3-yl)-2-[(2R)-2-ethyl-4-[4-fluoro-2-(trifluoromethyl)benzoyl]piperazin-1-yl]phenyl]methyl}[2-(methylamino)ethyl]amine], for which the Ki was below 10 nM.

Turning to `CCOc1ccccc1-c1ccc(N2CCN(C(=O)N3CCC[C@H]3C(F)(F)F)C[C@H]2CC)c(C(=O)NCC2CN(C)C2)n1` [Compound 1-362, 6-(2-ethoxyphenyl)-3-[(2R)-2-ethyl-4-[(2S)-2-(trifluoromethyl)pyrrolidine-1-carbonyl]piperazin-1-yl]-N-[(1-methylazetidin-3-yl)methyl]pyridine-2-carboxamide], the Ki is below 10 nM.

With `CCOc1ncccc1-c1ccc(N2CCN(C(=O)c3ccc(F)cc3Cl)C[C@H]2CC)c(C(=O)N[C@@H]2CCNC2)c1F` [Compound 1-73, 6-[(2R)-4-(2-chloro-4-fluorobenzoyl)-2-ethylpiperazin-1-yl]-3-(2-ethoxypyridin-3-yl)-2-fluoro-N-[(3R)-pyrrolidin-3-yl]benzamide], the Ki was below 10 nM.
